According to patent US8415342B2, “Besifloxacin ophthalmic composition for the treatment or control of infection” (Bausch & Lomb Incorporated, priority 2008, dated 2013):
≈ marks a conversion by molar mass, not a printed value. Where two headings read alike, the source gives them in different places.

Columns and labels:
Type in all cases: cell-based
Staphylococcus aureus = test: MIC, CLSI broth microdilution, clinical isolates; details: for MIC50 / MIC90: Staphylococcus aureus
[1] = system: Staphylococcus epidermidis; test: MIC, CLSI broth microdilution, clinical isolates; details: for MIC50: Staphylococcus epidermidis
[2] = system: Staphylococcus lugdunensis; test: MIC, CLSI broth microdilution, clinical isolates; details: Staphylococcus lugdunensis (N = 15)
[3] = system: Staphylococcus saprophyticus; test: MIC, CLSI broth microdilution, clinical isolates; details: Staphylococcus saprophyticus (N = 101)
[4] = system: Staphylococcus haemolyticus; test: MIC, CLSI broth microdilution, clinical isolates; details: Staphylococcus haemolyticus (N = 101)
Staphylococcus warneri = test: MIC, CLSI broth microdilution, clinical isolates; details: Staphylococcus warneri (N = 50)
Staphylococcus hominis = test: MIC, CLSI broth microdilution, clinical isolates; details: Staphylococcus hominis (N = 50)
Streptococcus agalactiae = test: MIC, CLSI broth microdilution, clinical isolates; details: Streptococcus agalactiae (N = 100)
Streptococcus pneumoniae = test: MIC, CLSI broth microdilution, clinical isolates
Streptococcus pyogenes = test: MIC, CLSI broth microdilution, clinical isolates; details: Streptococcus pyogenes (N = 101)
[5] = system: Lancefield group C, F, G streptococci; test: MIC, CLSI broth microdilution, clinical isolates; details: G streptococci (N = 50)
Viridans streptococci = test: MIC, CLSI broth microdilution, clinical isolates; details: Viridans streptococci (N = 156)
Citrobacter koseri = test: MIC, CLSI broth microdilution, clinical isolates; details: Citrobacter koseri (N = 100)
Klebsiella oxytoca = test: MIC, CLSI broth microdilution, clinical isolates; details: Klebsiella oxytoca (N = 50)
Haemophilus influenzae = test: MIC, CLSI broth microdilution, clinical isolates; details: for MIC50 / MIC90: Haemophilus influenzae
Legionella pneumophila = test: microbe, parasite or virus in culture
Moraxella catarrhalis = test: MIC, CLSI broth microdilution, clinical isolates; details: Moraxella catarrhalis (N = 101)
Morganella morganii = test: MIC, CLSI broth microdilution, clinical isolates; details: Morganella morganii (N = 51)
[6] = system: S. pneumoniae topoisomerase mutants; test: MIC against defined topoisomerase mutants; details: Streptococcus pneumoniae
[7] = system: S. aureus topoisomerase mutants; test: MIC against defined topoisomerase mutants; details: Staphylococcus aureus
[8] = system: E. coli topoisomerase mutants; test: MIC against defined topoisomerase mutants; details: Escherichia coli
Protocol: Furthermore, an experiment was conducted to assess the mechanism of action of besifloxacin in S. pneumoniae, S. aureus, and E. coli via step selections for isolates with decreased susceptibility to besifloxacin, as well as by testing for altered susceptibilities of ciprofloxacin-resistant variants of all three species containing genetically defined mutations in the quinolone resistance determining regions (QRDRs) of structural genes encoding DNA gyrase and topoisomerase IV (Table 2).

[9] = Staphylococcus aureus (CNS, N = 16)
[10] = Staphylococcus aureus (CS, N = 14)
[11] = Staphylococcus aureus (all phenotypes, N = 30)
[12] = MRSA, Staphylococcus aureus (MRSA, N = 11)
[13] = MSSA, Staphylococcus aureus (MSSA, N = 19)
[14] = Staphylococcus epidermidis (CNS, N = 6)
[15] = Staphylococcus epidermidis (CS, N = 9)
[16] = Staphylococcus epidermidis (MSSE, N = 6)
[17] = Staphylococcus epidermidis (all phenotypes, N = 15)
[18] = Streptococcus pneumoniae (PISP, N = 2)
[19] = Streptococcus pneumoniae (PRSP, N = 2)
[20] = Streptococcus pneumoniae (PSSP, N = 31)
[21] = Streptococcus pneumoniae (all phenotypes, N = 35)
[22] = Haemophilus influenzae (all phenotypes, N = 40)
[23] = Haemophilus influenzae (bla negative, N = 24)
[24] = Haemophilus influenzae (bla positive, N = 16)

With C[C@H]1COc2c(N3CCN(C)CC3)c(F)cc3c(=O)c(C(=O)O)cn1c23 [Levofloxacin] the “% S” value (Staphylococcus aureus; [9]) was 12.5%, the “% S” value (Staphylococcus aureus; [10]) was 92.9% and the “MIC Range” value (Staphylococcus aureus; [10]) was 0.06 to 2 µg/mL. For the same compound, the “% S” value (Staphylococcus aureus; Staphylococcus aureus (MRSA, N = 11)) was 18.2%, the “% S” value (Staphylococcus aureus; Staphylococcus aureus (MSSA, N = 19)) was 68.4% and the “% S” value (Staphylococcus aureus; [11]) was 50.0%. The MIC50 (Staphylococcus aureus; [12]) was 4 µg/mL (≈ 11.1 µM), the MIC90 (Staphylococcus aureus; [12]) was over 8 µg/mL and the MIC50 (Staphylococcus aureus; [13]) was 0.25 µg/mL (≈ 0.692 µM). For the same compound, the MIC90 (Staphylococcus aureus; [13]) was 4 µg/mL (≈ 11.1 µM), the MIC50 (Staphylococcus aureus; [9]) was 4 µg/mL (≈ 11.1 µM) and the MIC90 (Staphylococcus aureus; [9]) was over 8 µg/mL. The MIC50 (Staphylococcus aureus; [10]) was 0.12 µg/mL (≈ 0.332 µM), the MIC90 (Staphylococcus aureus; [10]) was 0.25 µg/mL (≈ 0.692 µM) and the MIC50 (Staphylococcus aureus; [11]) was 1 µg/mL (≈ 2.77 µM). For the same compound, the MIC90 (Staphylococcus aureus; [11]) was over 8 µg/mL, the “% S” value [1, 14] was 0.0% and the “% S” value [1, 15] was 100.0%. For the same compound, the “MIC Range” value [1, 15] was 0.12-0.12 μg/mL, the “% S” value ([1]; Staphylococcus epidermidis (MRSE, N = 9)) was 44.4% and the “% S” value [1, 16] was 83.3%. For the same compound, the “MIC Range” value [1, 16] was 0.12 to 8 µg/mL, the “% S” value [1, 17] was 60.0% and the MIC90 [1, 17] was over 8 µg/mL. For the same compound, the MIC50 ([1]; MRSE, Staphylococcus epidermidis (MRSE, N = 9)) was 2 µg/mL (≈ 5.53 µM), the MIC50 [1, 14] was 8 µg/mL (≈ 22.1 µM) and the MIC50 [1, 15] was 0.12 µg/mL (≈ 0.332 µM). For the same compound, the MIC50 [1, 16] was 0.12 µg/mL (≈ 0.332 µM), the MIC50 [1, 17] was 0.12 µg/mL (≈ 0.332 µM) and the “% S” value [2] was 66.7%. For the same compound, the MIC50 [2] was 0.25 µg/mL (≈ 0.692 µM), the MIC90 [2] was over 8 µg/mL and the “% S” value [3] was 100.0%. The MIC50 [3] was 0.5 µg/mL (≈ 1.38 µM), the MIC90 [3] was 0.5 µg/mL (≈ 1.38 µM) and the “MIC Range” value [3] was 0.06 to 0.5 µg/mL. The “% S” value [4] was 39.6%, the MIC50 [4] was 4 µg/mL (≈ 11.1 µM) and the MIC90 [4] was over 8 µg/mL. The “% S” value (Staphylococcus warneri) was 76.0%, the MIC50 (Staphylococcus warneri) was 0.12 µg/mL (≈ 0.332 µM) and the MIC90 (Staphylococcus warneri) was over 8 µg/mL. The “% S” value (Staphylococcus hominis) was 30.0%, the MIC50 (Staphylococcus hominis) was 8 µg/mL (≈ 22.1 µM) and the MIC90 (Staphylococcus hominis) was over 8 µg/mL. The “% S” value (Streptococcus agalactiae) was 98.0%, the “MIC Range” value (Streptococcus agalactiae) was 0.25 to 4 µg/mL and the MIC50 (Streptococcus agalactiae; read-out: MIC50) was 0.5 µg/mL (≈ 1.38 µM). For the same compound, the MIC90 (Streptococcus agalactiae; read-out: MIC90) was 1 µg/mL (≈ 2.77 µM), the “% S” value (Streptococcus pneumoniae; [18]) was 100.0% and the “MIC Range” value (Streptococcus pneumoniae; [18]) was 0.5 to 1 µg/mL. For the same compound, the “% S” value (Streptococcus pneumoniae; [19]) was 100.0%, the “MIC Range” value (Streptococcus pneumoniae; [19]) was 0.5 to 1 µg/mL and the “% S” value (Streptococcus pneumoniae; [20]) was 96.8%. For the same compound, the MIC50 (Streptococcus pneumoniae; [20]) was 0.5 µg/mL (≈ 1.38 µM), the MIC90 (Streptococcus pneumoniae; [20]) was 1 µg/mL (≈ 2.77 µM) and the “MIC Range” value (Streptococcus pneumoniae; [20]) was 0.5 to 8 µg/mL. The “% S” value (Streptococcus pneumoniae; [21]) was 97.1%, the “MIC Range” value (Streptococcus pneumoniae; [21]) was 0.5 to 8 µg/mL and the MIC50 (Streptococcus pneumoniae; Streptococcus pneumoniae (all phenotypes, N = 35), read-out: MIC50) was 0.5 µg/mL (≈ 1.38 µM). For the same compound, the MIC90 (Streptococcus pneumoniae; Streptococcus pneumoniae (all phenotypes, N = 35), read-out: MIC90) was 1 µg/mL (≈ 2.77 µM), the “% S” value (Streptococcus pyogenes) was 100.0% and the “MIC Range” value (Streptococcus pyogenes) was 0.25 to 2 µg/mL. The MIC50 (Streptococcus pyogenes; read-out: MIC50) was 0.5 µg/mL (≈ 1.38 µM), the MIC90 (Streptococcus pyogenes; read-out: MIC90) was 0.5 µg/mL (≈ 1.38 µM) and the “% S” value [5] was 98.0%. The “MIC Range” value [5] was 0.12 to 8 µg/mL, the MIC50 ([5]; read-out: MIC50) was 0.5 µg/mL (≈ 1.38 µM) and the MIC90 ([5]; read-out: MIC90) was 0.5 µg/mL (≈ 1.38 µM). For the same compound, the “% S” value (Viridans streptococci) was 95.5%, the MIC50 (Viridans streptococci; read-out: MIC50) was 1 µg/mL (≈ 2.77 µM) and the MIC90 (Viridans streptococci; read-out: MIC90) was 1 µg/mL (≈ 2.77 µM). The “% S” value (Citrobacter koseri) was 99.0%, the MIC50 (Citrobacter koseri) was 0.03 µg/mL (≈ 0.083 µM) and the MIC90 (Citrobacter koseri) was 0.12 µg/mL (≈ 0.332 µM). For the same compound, the “% S” value (Klebsiella oxytoca) was 90.0%, the MIC50 (Klebsiella oxytoca) was 0.03 µg/mL (≈ 0.083 µM) and the MIC90 (Klebsiella oxytoca) was 0.5 µg/mL (≈ 1.38 µM). The “MIC Range” value (Klebsiella oxytoca) was 0.015 to 8 µg/mL, the “% S” value (Haemophilus influenzae; [22]) was 100.0% and the “MIC Range” value (Haemophilus influenzae; [22]) was 0.008 to 0.015 µg/mL. For the same compound, the “% S” value (Haemophilus influenzae; [23]) was 100.0%, the “MIC Range” value (Haemophilus influenzae; [23]) was 0.008 to 0.015 µg/mL and the “% S” value (Haemophilus influenzae; [24]) was 100.0%. The “MIC Range” value (Haemophilus influenzae; [24]) was 0.015-0.015 μg/mL, the MIC50 (Haemophilus influenzae; [22]) was 0.015 µg/mL (≈ 0.0415 µM) and the MIC90 (Haemophilus influenzae; [22]) was 0.015 µg/mL (≈ 0.0415 µM). The MIC50 (Haemophilus influenzae; [23]) was 0.015 µg/mL (≈ 0.0415 µM), the MIC90 (Haemophilus influenzae; [23]) was 0.015 µg/mL (≈ 0.0415 µM) and the MIC50 (Haemophilus influenzae; [24]) was 0.015 µg/mL (≈ 0.0415 µM). The MIC90 (Haemophilus influenzae; [24]) was 0.015 µg/mL (≈ 0.0415 µM), the MIC50 (Legionella pneumophila; Legionella pneumophila) was 0.03 µg/mL (≈ 0.083 µM) and the MIC90 (Legionella pneumophila; Legionella pneumophila) was 0.03 µg/mL (≈ 0.083 µM). For the same compound, the “MIC Range” value (Legionella pneumophila; Legionella pneumophila (N = 50)) was 0.015 to 0.06 µg/mL, the “% S” value (Moraxella catarrhalis) was 100.0% and the MIC50 (Moraxella catarrhalis) was 0.015 µg/mL (≈ 0.0415 µM). The MIC90 (Moraxella catarrhalis) was 0.03 µg/mL (≈ 0.083 µM), the “MIC Range” value (Moraxella catarrhalis) was 0.015 to 0.5 µg/mL and the “% S” value (Morganella morganii) was 76.5%. For the same compound, the MIC50 (Morganella morganii) was 0.06 µg/mL (≈ 0.166 µM) and the MIC90 (Morganella morganii) was 8 µg/mL (≈ 22.1 µM).
O=C(O)c1cn(C2CC2)c2cc(N3CCNCC3)c(F)cc2c1=O [Ciprofloxacin] gave an MIC ([6]; S. pneumoniae parC S79Y) of 8 µg/mL (≈ 24.1 µM), an MIC ([6]; S. pneumoniae parC S79Y + gyrA S81F) of 64 µg/mL and an MIC ([7]; S. aureus Wild type) of 1 µg/mL (≈ 3.02 µM). The MIC ([7]; S. aureus parC S80F + gyrA S84L) was 64 µg/mL, the MIC ([8]; E. coli Wild type) was 0.008 µg/mL (≈ 0.0241 µM) and the MIC ([8]; E. coli gyrA D87Y (or S83L)) was 0.12 µg/mL (≈ 0.362 µM). It also gave an MIC ([8]; E. coli gyrA S83L + parC S80R) of 4 µg/mL, an MIC ([8]; E. coli gyrA S83L + parE H445L) of 0.12 µg/mL and an MIC ([8]; E. coli gyrB D426N) of 0.03 µg/mL (≈ 0.0905 µM).
